Starred links: 1 amine or outer side, 2 acyl side, 3 side chain; linkers in the order of their positions; H or OH if unused. Positions of bridges follow the written chain, without caps; N, C: chain ends. Non-standard residues stand in square brackets, D forms with d. Residues, ends and D or L forms follow the SMILES beside them. Chains are numbered I, II in the order given. Actinocin(1to9) = Cc1c2oc3c(C)ccc(C(=O)[*:2])c3nc-2c(C(=O)[*:1])c(N)c1=O; NMeV = CN[C@H](C(=O)O)C(C)C; Sar = CNCC(=O)O
Target: T1, HCV NS3 helicase NS3h_1b(con1) (Hepatitis C virus genotype 1b, UniProt Q9WMX2)
T1 construct: truncated C-terminally His-tagged NS3 proteins lacking the N-terminal protease, called NS3h; His-tag (C); made in house
Assay: MBHA screen of NCI mechanistic set library at 20 μM (percent inhibition, compound interference)
Format: biochemical
Details: compounds at 20 μM; for Inh. (%) (Inhibition): calculated from Equation 1
Experimental: All molecular beacon-based helicase assays (MBHAs) were performed according to known methods (Belon & Frick (2008) supra; Belon & Frick (2009) supra). […] In each flat, black 384-well plate, 56 compounds were tested, in triplicate, along with three negative controls (DMSO only), three positive controls (500 nM dT20), and two wells with no enzyme. Fluorescence was read before ATP (F0) addition and 30 minutes after ATP was added to 1 mM (F30) using a Tecan Infinite M200 fluorescence microplate reader with excitation and emission wavelengths set to 643 and 670 nm, respectively. Percent inhibition was calculated with equation 1, and compound interference in the MBHA was calculated with equation 2.
In Equations 1 and 2, Fc0 is the fluorescence of the reactions containing the test compound before adding ATP, Fc30 is the fluorescence of the test compound reaction 30 minutes after adding ATP. F(−)0 is the average of three DMSO-only negative control reactions before adding ATP and F(−)30 is the average of three DMSO-only reactions 30 minutes after adding ATP.
To identify HCV helicase inhibitors, the MBHA was first used to screen the National Cancer Institute Developmental Therapeutics Program's mechanistic set library. In total, 827 compounds (at 20 μM) were screened using a MBHA with a DNA substrate (Table 1). Compounds were ranked by their ability to inhibit HCV helicase-catalyzed DNA unwinding as calculated from Equation 1.
Compound interference in the MBHA was evaluated by comparing the fluorescence of reactions containing each compound to the fluorescence of DMSO-only negative controls before ATP was added.

[1] = MBHA with DNA substrate, assay interference calculated with Equation 2
[2] = assay interference calculated with Equation 2 (fluorescence vs DMSO-only controls before ATP)

T1 sequence (Q9WMX2 1192-1657): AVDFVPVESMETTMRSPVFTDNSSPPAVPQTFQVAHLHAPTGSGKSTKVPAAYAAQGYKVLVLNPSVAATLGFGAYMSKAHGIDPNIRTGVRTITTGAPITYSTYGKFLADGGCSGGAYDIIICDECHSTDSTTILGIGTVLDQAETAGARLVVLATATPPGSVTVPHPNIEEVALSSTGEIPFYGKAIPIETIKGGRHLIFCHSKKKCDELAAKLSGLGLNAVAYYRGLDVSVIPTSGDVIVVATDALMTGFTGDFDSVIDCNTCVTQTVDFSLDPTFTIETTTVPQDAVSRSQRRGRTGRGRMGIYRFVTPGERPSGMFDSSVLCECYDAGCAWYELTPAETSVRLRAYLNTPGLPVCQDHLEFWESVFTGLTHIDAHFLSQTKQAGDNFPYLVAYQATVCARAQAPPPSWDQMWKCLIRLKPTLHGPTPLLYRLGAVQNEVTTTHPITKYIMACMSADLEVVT

Row | SMILES | Int.* (Ratio) (Interference) [1] | Inh. (%) (Inhibition) (MBHA with DNA substrate) | Inh. (%) (Inhibition) (MBHA with a DNA substrate) | Int.* (Ratio) (Interference) [2]
1 | CCN(CC)CCNc1ccc(C)c2sc3ccccc3c(=O)c12.Cl [Compound 14574] | 0.85 | 30.3 | – | –
2 | CC1=CC(O)C(O)C2(C)C1CC1OC(=O)C(O)C3C(C)C(O)C4(O)OCC13C42 (stereo not shown) [Compound 14974] | 0.99 | 20.9 | – | –
3 | CC[C@](C)(O)C(=O)O[C@H]1C(=O)O[C@@H]2C[C@H]3C(C)=C[C@H](O)[C@@H](O)[C@]3(C)[C@H]3[C@@]4(O)OC[C@]32[C@@H]1[C@@H](C)[C@H]4O [Compound 14975] | – | – | −20.8 | 1.03
4 | O=[N+]([O-])[O-].O=[N+]([O-])[O-].O=[N+]([O-])[O-].[Ga+3] [Compound 15200] | 0.75 | 53.4 | – | –
5 | CC[C@H](C)[C@@H]1NC(=O)[C@@H](NC(=O)c2c3nc4c(C(=O)N[C@@H]5C(=O)N[C@@H](C(C)C)C(=O)N6CCC[C@H]6C(=O)N(C)CC(=O)N(C)[C@@H](C(C)C)C(=O)O[C@@H]5C)ccc(C)c4oc-3c(C)c(=O)c2N)[C@@H](C)OC(=O)[C@H](C(C)C)N(C)C(=O)CN(C)C(=O)[C@@H]2CCCN2C1=O [Compound 18268] (I: TIP[Sar][NMeV] / II: TVP[Sar][NMeV]; ester I:1-I:C, II:1-II:C; linker I:N-II:N via Actinocin(1to9)) | 0.61 | 27.6 | – | –
6 | CC(C)c1cccc(O)c(=O)c1 [Compound 18804] | 0.97 | 15.2 | – | –
7 | CC(C)c1ccc(O)c(=O)cc1 [Compound 18805] | 0.98 | 31.0 | – | –
8 | CN(C)CCCN1c2ccccc2Sc2ccc3ccccc3c21 [Compound 18891] | – | – | −4.0 | 0.89
9 | CCCCCCCCCCCCC(O)C(=O)O (stereo not shown) [Compound 18938] | 1.06 | 1.7 | – | –
10 | CCN(CC)CCOc1ccc(C(O)(Cc2ccc(OC)cc2)c2ccccc2)cc1 (stereo not shown) [Compound 19857] | – | – | 7.4 | 1.05
11 | COC(=O)C1C(O)C(C)C(O)C(C)/C=C\C=C(C)C(=O)Nc2c(C)c(OC(C)=O)c3c(c2O)C(=O)C(C)=C2OCOC(=C23)C(C)=CC(C)(O)C(O)C(C)C1O (stereo not shown) [Compound 19990] | 0.96 | 25.1 | – | –
12 | Nc1nc2c(ncn2[C@@H]2O[C@H](CO)[C@@H](O)[C@H]2O)c(=O)[nH]1 [Compound 19994] | – | – | 10.4 | 1.05
13 | CCCCOCc1cc(CN2CCN(C)CC2)c(O)c2ncccc12 [Compound 20514] | – | – | −19.2 | 1.06
14 | CCN(CCO)CCNc1ccc(C)c2sc3ccccc3c(=O)c12 [Compound 20534] | 0.96 | 15.7 | – | –
15 | Cc1cn(C2CC(O)C(CO)O2)c(=O)[nH]c1=O (stereo not shown) [Compound 21548] | 0.98 | 2.1 | – | –
16 | O=c1oc2cc(O)ccc2c2oc3cc(O)ccc3c12 [Compound 22842] | 1.10 | 1.5 | – | –
17 | CC(CN(C)C)C(=O)c1ccccc1C(=O)O (stereo not shown) [Compound 22992] | 0.86 | 25.9 | – | –
18 | CN(CCc1ccccn1)c1ccc2c(c1)C(=O)c1ccccc1-2 [Compound 24048] | 1.11 | −12.7 | – | –
19 | CN(C)CCCN1c2ccc3ccccc3c2Sc2cccc(Cl)c21 [Compound 24113] | – | – | 11.0 | 0.81
20 | CO[C@H](C(=O)[C@@H](O)[C@@H](C)O)[C@@H]1Cc2cc3cc(O[C@H]4C[C@@H](O[C@H]5C[C@@H](O)[C@H](O)[C@@H](C)O5)[C@H](O)[C@@H](C)O4)c(C)c(O)c3c(O)c2C(=O)[C@H]1O[C@H]1C[C@@H](O[C@H]2C[C@@H](O[C@H]3C[C@](C)(O)[C@H](O)[C@@H](C)O3)[C@@H](O)[C@@H](C)O2)[C@H](O)[C@@H](C)O1 [Compound 24559] | 0.91 | 36.0 | – | –
21 | COc1cc([C@@H]2c3cc4c(c(O)c3C[C@H]3COC(=O)[C@@H]32)OCO4)cc(OC)c1O [Compound 24817] | 0.99 | 15.4 | – | –

Row | SMILES | Int.* (Ratio) (Interference) [1] | Inh. (%) (Inhibition) (MBHA with DNA substrate) | Inh. (%) (Inhibition) (MBHA with a DNA substrate) | Int.* (Ratio) (Interference) [2]
22 | COc1cc(C2c3cc4c(cc3C(O)C3COC(=O)C23)OCO4)cc(OC)c1OC (stereo not shown) [Compound 24818] | 1.07 | −2.7 | – | –
23 | COc1cc([C@@H]2c3cc4c(c(O)c3C[C@H]3COC(=O)[C@@H]32)OCO4)cc(OC)c1OC [Compound 24819] | 1.12 | −0.3 | – | –
24 | CC(C)C1=CC2=CC[C@@H]3[C@](C)(CCC[C@@]3(C)C(=O)O)[C@H]2CC1 [Compound 25149] | 0.93 | −11.6 | – | –
25 | OC(CN1CCCCC1)c1ccc(/C=C/c2ccc(Cl)cc2)cc1 (stereo not shown) [Compound 26040] | 0.97 | −17.0 | – | –
26 | O=C1Nc2c(Cl)cc(Cl)cc2C1=O [Compound 26045] | 0.92 | −13.7 | – | –
27 | OCC1OC(n2cnc3c(SCc4ccccc4)ncnc32)C(O)C1O (stereo not shown) [Compound 26273] | – | – | −6.4 | 0.89
28 | Cc1c2ccc3ccccc3c2c[n+]2ccccc12.[Cl-] [Compound 28002] | 1.08 | 27.1 | – | –
29 | Cl.Nc1nc(N)c2ncn(-c3ccccc3)c2n1 [Compound 29603] | – | – | −5.0 | 0.99
30 | O=C([O][Hg][CH2]C1COC([CH2][Hg][O]C(=O)c2ccccc2)CO1)c1ccccc1 (stereo not shown) [Compound 30916] | 0.93 | 19.0 | – | –
31 | Nc1ccc2nc3ccc(=O)cc-3n(-c3ccccc3)c2c1 [Compound 31702] | 0.92 | −9.7 | – | –
32 | NC(=O)NO [Compound 32065] | 1.01 | 3.7 | – | –
33 | CC[C@H]1CN2CCc3cc(OC)c(OC)cc3[C@@H]2C[C@@H]1C[C@H]1NCCc2cc(O)c(OC)cc21 [Compound 32944] | – | – | −28.9 | 1.02
34 | CC(/C=N/N=C(N)N)=N\N=C(N)N [Compound 32946] | 1.07 | −13.6 | – | –
35 | COc1cc(/C=C/C(=O)CC(=O)/C=C/c2ccc(O)c(OC)c2)ccc1O [Compound 32982] | 0.90 | 15.0 | – | –
36 | COc1c(O[C@@H]2O[C@H](CO)[C@@H](O)[C@H](O)[C@H]2O)cc2c(c1OC)-c1ccc(OC)c(=O)cc1[C@@H](NC(C)=O)CC2 [Compound 32992] | – | – | −28.7 | 1.04
37 | Oc1ccc(-c2nc3ccccc3s2)cc1 [Compound 33004] | 1.00 | −0.9 | – | –
38 | CC(=O)Nc1ccc(-c2nc3ccccc3s2)cc1 [Compound 33006] | 0.89 | 15.9 | – | –
39 | COc1cc2c(c(OC)c1OC)-c1ccc(OC)c(=O)cc1[C@@H](NC(=O)c1ccccc1)CC2 [Compound 33410] | – | – | −28.8 | 1.16
40 | CCN1C=C/C(=C\C=C\c2cc[n+](CC)c3ccccc23)c2ccccc21.[I-] [Compound 34391] | 0.24 | 100.6 | – | –
41 | COc1c2c(c(OC)c3c1c(=O)c1ccccc1n3C)OCO2 [Compound 34757] | 0.98 | −7.4 | – | –

From patent publication US9464064B2, “HCV helicase inhibitors and methods of use thereof” (University of Kansas, priority 2011, dated 2016)
